From PMC9133015 (Nature Communications, 2022)
Values joined by “and” are separate entries in the source; they are usually repeats but may differ in a detail not shown here. Equal entries are not always repeated.

Tests used:
DU145 xenograft [1] = assay: In vivo antitumor activity, DU145 xenograft mouse model; parameters: species or system BALB/c nude mice; conditions: for Body weight (Fig. 7b) / Tumor volume (Fig. 7a): individual mice 1-10
PC-3 cells [2] = assay: Cell growth assay (5-day course); type: cell-based, human; conditions: PC-3, 4 µM; for Relative proliferation rate / optical density: replicates
22Rv1 cells [3] = assay: Cell growth assay (5-day course); type: cell-based, human; conditions: 22Rv1, 0.5 µM
DU145 cells [4] = assay: Cell growth assay (5-day course); type: cell-based, human; conditions: DU145, 2 μM
22Rv1 cells [5] = assay: Colony formation assay; type: cell-based, human; conditions: 22Rv1, 0.5 μM, replicates
DU145 cells [6] = assay: Colony formation assay; type: cell-based, human; conditions: DU145, 2 μM, replicates
DU145 xenograft [7] = assay: H&E and Ki67 staining of xenograft tumor tissues; type: in vivo, BALB/c nude mice; conditions: DU145, reference drug groups, replicates
PC-3 cells [8] = assay: Apoptosis assay (Annexin V-APC/PI flow cytometry); type: cell-based, human; conditions: PC-3; 2 µM; replicates
22Rv1 cells [9] = assay: Apoptosis assay (Annexin V-APC/PI flow cytometry); type: cell-based, human; conditions: 22Rv1, 0.5 μM, replicates
DU145 cells [10] = assay: Apoptosis assay (Annexin V-APC/PI flow cytometry); type: cell-based, human; conditions: DU145, 2 μM, replicates

Q: How did the “antitumor activity (in words)” value (DU145 xenograft [1]; DU145 xenograft, 100 mg/kg orally once a day, seven weeks) turn out when `CC(=O)c1c(C)c2cnc(Nc3ccc(N4CCNCC4)cn3)nc2n(C2CCCC2)c1=O` [palbociclib] was run?
A: only delayed the tumor growth

Q: And the “Body weight (Fig. 7b)” value (DU145 xenograft [1]; Day 1)?
A: 20.6 and 19.7 and 20.3 (2×) and 19.6 and 19.8 and 20.4 and 20.1 and 21.5 and 21.1

Q: And the “Tumor volume (Fig. 7a)” value (DU145 xenograft [1]; Day 1, in cm³ (unit assumed))?
A: 0.06799 and 0.07327 and 0.07849 and 0.09349 and 0.07486 and 0.07173 and 0.06955 and 0.08095 and 0.1033 and 0.07176

Q: And the “Body weight (Fig. 7b)” value (DU145 xenograft [1]; Day 3)?
A: 20.9 and 20.1 and 20.5 and 19.9 and 20.3 and 20.7 (2×) and 20.4 and 21.5 (2×)

Q: What about the “Tumor volume (Fig. 7a)” value (DU145 xenograft [1]; Day 3) of the same compound?
A: 0.109 (2×) and 0.1112 and 0.1321 and 0.1287 and 0.1049 and 0.09325 and 0.1073 and 0.1517 and 0.1054

Q: And the “Body weight (Fig. 7b)” value (DU145 xenograft [1]; Day 5)?
A: 21.2 and 20.4 and 20.7 (2×) and 20.2 and 20.5 and 20.8 and 21.6 and 21.8 and 20.9

Q: What about the “Tumor volume (Fig. 7a)” value (DU145 xenograft [1]; Day 5, in cm³ (unit assumed)) of the same compound?
A: 0.1433 and 0.1864 and 0.1614 and 0.176 and 0.1543 and 0.1645 and 0.1193 and 0.1528 and 0.2268 and 0.2014

Q: And the “Tumor volume (Fig. 7a)” value (DU145 xenograft [1]; Day 7, in cm³ (unit assumed))?
A: 0.1784 and 0.235 and 0.2414 and 0.2692 and 0.217 and 0.2962 and 0.1705 and 0.2421 and 0.3416 and 0.2763

Q: What about the “Body weight (Fig. 7b)” value (DU145 xenograft [1]; Day 7, in g (unit assumed)) of the same compound?
A: 21.5 and 20.6 and 21 and 20.5 and 20.7 and 21.1 and 20.9 and 21.9 and 22.1 and 21.2

Q: What about the “Body weight (Fig. 7b)” value (DU145 xenograft [1]; Day 9) of the same compound?
A: 21.7 and 21 and 21.5 (2×) and 20.9 and 21.3 (2×) and 21.2 and 22.3 and 22.5

Q: And the “Tumor volume (Fig. 7a)” value (DU145 xenograft [1]; Day 9, in cm³ (unit assumed))?
A: 0.239 and 0.3072 and 0.3051 and 0.3239 and 0.2873 and 0.3055 and 0.2456 and 0.3235 and 0.4654 and 0.3489

Q: And the “Body weight (Fig. 7b)” value (DU145 xenograft [1]; Day 11)?
A: 22.1 and 21.4 and 21.9 and 21.2 and 21.6 and 21.7 and 21.5 (2×) and 22.6 and 22.9

Q: And the “Tumor volume (Fig. 7a)” value (DU145 xenograft [1]; Day 11, in cm³ (unit assumed))?
A: 0.3066 and 0.4081 and 0.3897 and 0.4352 and 0.3512 and 0.3909 and 0.2984 and 0.4401 and 0.56 and 0.4357

Q: What about the “Tumor volume (Fig. 7a)” value (DU145 xenograft [1]; Day 13, in cm³ (unit assumed)) of the same compound?
A: 0.3785 and 0.467 and 0.4591 and 0.5566 and 0.4456 and 0.4658 and 0.368 and 0.5218 and 0.6407 and 0.5062

Q: What about the “Body weight (Fig. 7b)” value (DU145 xenograft [1]; Day 13, in g (unit assumed)) of the same compound?
A: 22.5 and 21.7 and 22.2 and 21.4 and 21.9 and 22.1 and 21.6 and 23.1 and 23.2 and 21.8

Q: And the “Body weight (Fig. 7b)” value (DU145 xenograft [1]; Day 15)?
A: 22.9 and 22 and 22.4 and 21.6 and 22.1 (2×) and 22.5 and 21.7 and 23.3 and 23.5

Q: And the “Tumor volume (Fig. 7a)” value (DU145 xenograft [1]; Day 15, in cm³ (unit assumed))?
A: 0.4581 and 0.5316 and 0.5555 and 0.6598 and 0.5071 and 0.5543 and 0.4465 and 0.6242 and 0.7718 and 0.6156

Q: And the “Body weight (Fig. 7b)” value (DU145 xenograft [1]; Day 17)?
A: 23.1 (2×) and 22.2 and 22.7 (2×) and 21.9 and 22.4 and 21.6 and 23.7 and 22.3

Q: And the “Tumor volume (Fig. 7a)” value (DU145 xenograft [1]; Day 17, in cm³ (unit assumed))?
A: 0.5062 and 0.5921 and 0.6502 and 0.7599 and 0.6087 and 0.6352 and 0.4918 and 0.6837 and 0.8676 and 0.6822

Q: What about the “Body weight (Fig. 7b)” value (DU145 xenograft [1]; Day 19) of the same compound?
A: 23.4 (2×) and 22.5 and 23.1 (2×) and 22.3 and 22.8 and 21.9 and 23.9 and 22.6

Q: And the “Tumor volume (Fig. 7a)” value (DU145 xenograft [1]; Day 19, in cm³ (unit assumed))?
A: 0.5936 and 0.6347 and 0.7034 and 0.8268 and 0.6585 and 0.679 and 0.5363 and 0.7534 and 0.9195 and 0.6727

Q: And the “Tumor weight (Fig. 7c)” value (DU145 xenograft [1]; reference drug groups, individual mice, in g (unit assumed))?
A: 1.87 and 2.14 and 1.86 and 2.29 and 1.85 and 1.63 and 1.81 and 1.69 and 1.58

Q: What about the “Relative proliferation rate mean” value (PC-3 cells [2]; day 0) of the same compound?
A: 1

Q: And the Relative proliferation rate (PC-3 cells [2]; day 0)?
A: 1

Q: And the optical density (PC-3 cells [2]; day 0)?
A: 0.261

Q: And the “Relative proliferation rate mean” value (PC-3 cells [2]; day 1)?
A: 1.157

Q: What about the Relative proliferation rate (PC-3 cells [2]; day 1) of the same compound?
A: 1.143 and 1.182 and 1.147

Q: And the optical density (PC-3 cells [2]; day 1)?
A: 0.298 and 0.308 and 0.299

Q: What about the “Relative proliferation rate mean” value (PC-3 cells [2]; day 2) of the same compound?
A: 1.563

Q: And the Relative proliferation rate (PC-3 cells [2]; day 2)?
A: 1.569 and 1.565 and 1.554

Q: What about the optical density (PC-3 cells [2]; day 2) of the same compound?
A: 0.409 and 0.408 and 0.405

Q: And the “Relative proliferation rate mean” value (PC-3 cells [2]; day 3)?
A: 2.215

Q: And the Relative proliferation rate (PC-3 cells [2]; day 3)?
A: 2.206 and 2.244 and 2.194

Q: And the optical density (PC-3 cells [2]; day 3)?
A: 0.575 and 0.585 and 0.572

Q: And the “Relative proliferation rate mean” value (PC-3 cells [2]; day 4)?
A: 4.39

Q: And the Relative proliferation rate (PC-3 cells [2]; day 4)?
A: 4.419 and 4.354 and 4.396

Q: What about the optical density (PC-3 cells [2]; day 4) of the same compound?
A: 1.152 and 1.135 and 1.146

Q: What about the “Relative proliferation rate mean” value (22Rv1 cells [3]; day 1) of the same compound?
A: 1.1416

Q: And the “Relative proliferation rate mean” value (22Rv1 cells [3]; day 2)?
A: 1.363

Q: What about the “Relative proliferation rate mean” value (22Rv1 cells [3]; day 3) of the same compound?
A: 1.755

Q: And the “Relative proliferation rate mean” value (22Rv1 cells [3]; day 4)?
A: 2.003

Q: What about the “Relative proliferation rate mean” value (DU145 cells [4]; day 1) of the same compound?
A: 1.596

Q: And the “Relative proliferation rate mean” value (DU145 cells [4]; day 2)?
A: 2.367

Q: What about the “Relative proliferation rate mean” value (DU145 cells [4]; day 3) of the same compound?
A: 5.211

Q: And the “Relative proliferation rate mean” value (DU145 cells [4]; day 4)?
A: 6.975

Q: What about the “Colony formation (cell number)” value (22Rv1 cells [5]) of the same compound?
A: 250 cell number and 274 cell number and 246 cell number

Q: And the “Colony formation (cell number)” value (DU145 cells [6])?
A: 150 cell number and 158 cell number and 148 cell number

Q: What about the “Positive rate ( % ) (Fig. 7f)” value (DU145 xenograft [7]) of the same compound?
A: 31.83% and 31.88% and 31.79%

Q: And the “Apoptosis (%)” value (PC-3 cells [8])?
A: 13.98% and 14.78% and 15.2%

Q: What about the “Apoptosis (%)” value (22Rv1 cells [9]) of the same compound?
A: 5.82% and 6.41% and 7.27%

Q: What about the “Apoptosis (%)” value (DU145 cells [10]) of the same compound?
A: 16.25% and 14.39% and 12.36%
